Patent publication US11207386B2, “Methods for inhibiting tumor growth” (priority 2015, dated 2021)
“And” between values parts separate entries of the source, which are not always exact repeats. Equal values may be shown once.

Tested on: MCF-7 human breast cancer cells
Assay: CellTiter Glo assay
Details: six wells and Average
Experimental: MCF-7 human breast cancer cells were obtained and cultured for 3 passages in recommended media (DMEM medium, F12-K medium, McCoys 5a medium) and 10% fetal bovine serum (FBS). Cells were harvested by trypsinization, counted on ViCell, then plated at a density of 20,000 cells per well in ten clear bottom Perkin Elmer 96 well view plates and ten clear Costar 96 well plates. Oxyrase® and substrate were added to wells in quadruplicate: a first column of 4 wells had cells alone in each well; a second column of 4 wells contained Oxyrase® (20 units/mL) and cells; a third column of 4 wells contained L-Lactate at 40 mM and cells; and a fourth column of 4 wells contained cells and buffer, the latter added at equal volume to Oxyrase®. Five Perkin Elmer 96 well view plates and five clear Costar 96 well plates were placed in an incubator at 37 degrees Celsius and supplied with 5% carbon dioxide and 10% humidity. The remaining plates were placed in an incubator in anaerobic boxes containing oxygen depleting packets.
On days 0, 1, 3, 5, and 7, one Perkin Elmer 96 well view plate each from aerobic and anaerobic incubators were removed and a CellTiter Glo® assay was performed. CellTiter Glo® reagents were thawed at room temperature and mixed just before being added to each plate. Equal volume (maximum 125 μL) of CellTiter Glo® reagent was added to the plate and the plate incubated in the dark for 15 minutes. Plates were read using a Wallac Victor2 plate reader using the luminescence range

L-Lactate [Substrate + Buffer]
CellTiter Glo luminescence (number of cells) (MCF-7, Day 0, Substrate + Buffer): 376738 RLU and 379461 RLU and 340018 RLU and 370831 RLU and 395464 RLU and 380015 RLU
CellTiter Glo luminescence (number of cells) (MCF-7, Day 1, Substrate + Buffer): 136132 RLU and 135475 RLU and 224766 RLU and 187489 RLU and 171303 RLU and 142850 RLU
CellTiter Glo luminescence (number of cells) (MCF-7, Day 5, Substrate + Buffer): 180844 RLU and 214489 RLU and 155311 RLU and 175921 RLU and 183640 RLU and 185254 RLU
CellTiter Glo luminescence (number of cells) (MCF-7, Day 7, Substrate + Buffer): 147731 RLU and 163281 RLU and 149128 RLU and 150112 RLU and 139841 RLU and 176875 RLU
